Assay results published in patent publication US8741944B2, “Anti-infective agents against intracellular pathogens” (priority 2007, dated 2014).

Test system: SNB-19 (CNS Cancer)
Assay: NCI DTP tumor cell line screen (SRB), SNB-19
Procedure: For a typical screening experiment, cells are inoculated into 96 well microtiter plates in 100 μL at plating densities ranging from 5,000 to 40,000 cells/well depending on the doubling time of individual cell lines. After cell inoculation, the microtiter plates are incubated at 37° C., 5% CO2, 95% air and 100% relative humidity for 24 h prior to addition of experimental drugs.
After 24 h, two plates of each cell line are fixed in situ with TCA, to represent a measurement of the cell population for each cell line at the time of drug addition (Tz). Experimental drugs are solubilized in dimethyl sulfoxide at 400-fold the desired final maximum test concentration and stored frozen prior to use. At the time of drug addition, an aliquot of frozen concentrate is thawed and diluted to twice the desired final maximum test concentration with complete medium containing 50 μg/ml gentamicin. Additional four, 10-fold or ½ log serial dilutions are made to provide a total of five drug concentrations plus control. Aliquots of 100 μl of these different drug dilutions are added to the appropriate microtiter wells already containing 100 μl of medium, resulting in the required final drug concentrations.
Following drug addition, the plates are incubated for an additional 48 h at 37° C., 5% CO2, 95% air, and 100% relative humidity. For adherent cells, the assay is terminated by the addition of cold TCA. Cells are fixed in situ by the gentle addition of 50 μl of cold 50% (w/v) TCA (final concentration, 10% TCA) and incubated for 60 minutes at 4° C. The supernatant is discarded, and the plates are washed five times with tap water and air dried. Sulforhodamine B (SRB) solution (1001) at 0.4% (w/v) in 1% acetic acid is added to each well, and plates are incubated for 10 minutes at room temperature. After staining, unbound dye is removed by washing five times with 1% acetic acid and the plates are air dried. Bound stain is subsequently solubilized with 10 mM trizma base, and the absorbance is read on an automated plate reader at a wavelength of 515 nm. For suspension cells, the methodology is the same except that the assay is terminated by fixing settled cells at the bottom of the wells by gently adding 50 μl of 80% TCA (final concentration, 16% TCA). Using the seven absorbance measurements [time zero, (Tz), control growth, (C), and test growth in the presence of drug at the five concentration levels (Ti)], the percentage growth is calculated at each of the drug concentrations levels. Percentage growth inhibition is calculated as: [(Ti−Tz)/(C−Tz)]×100 for concentrations for which Ti>/=Tz [(Ti−Tz)/Tz]×100 for concentrations for which Ti<Tz
Three dose response parameters are calculated for each experimental agent. […] The drug concentration resulting in total growth inhibition (TGI) is calculated from Ti=Tz. […] Values are calculated for each of these three parameters if the level of activity is reached; however, if the effect is not reached or is exceeded, the value for that parameter is expressed as greater or less than the maximum or minimum concentration tested.

NCC(=O)Nc1ccc(-n2nc(C(F)(F)F)cc2-c2ccc3c(ccc4ccccc43)c2)cc1 [Compound 70, 2-Amino-N-{4-[5-(2-phenanthrenyl)-3-(trifluoromethyl)-1H-pyrazol-1-yl]-phenyl}-acetamide]
TGI: 3.15E−06 | Mean Optical Densities (Log10 Concentration −4.0): 0.324 | Mean Optical Densities (Log10 Concentration −5.0): 0.219 | Percent Growth (Log10 Concentration −5.0): −59% | Mean Optical Densities (Log10 Concentration −6.0): 1.230 | Percent Growth (Log10 Concentration −6.0): 59% | Mean Optical Densities (Log10 Concentration −7.0): 1.655 | Percent Growth (Log10 Concentration −7.0): 94% | Mean Optical Densities (Log10 Concentration −8.0): 1.562 | Percent Growth (Log10 Concentration −8.0): 87%
